Holding throughout (assay): NCI anticancer screen, dose series, 48 h
The test system of test [1] is SW-620 colon.
In test [2] the test system is OVCAR-8 ovarian.
The test system of test [3] is A549 NSCLC.
Test [4] deals with CCRF-CEM leukemia.
For test [5], the system named is NCI-H23 lung.
The subject of test [6] is SF-268 CNS.
Test [7] deals with MOLT-4 leukemia.
In test [8] the test system is SNB-19 CNS.
For test [9], the system named is KM12 colon.
Test [10] has as its system SK-OV-3 ovarian.
The subject of test [11] is SK-MEL-5 melanoma.
Test [12] relates to T-47D breast.
The test system of test [13] is NCI-H522 lung.
Test [14] has as its system U251 CNS.

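Dose response: 5 concentrations. Exposure: 48 h. Format: 96-well plates. Endpoint: linear interpolation; highest concentration if not reached. The concentration for full growth arrest is given as TGI.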 Some results are limits rather than exact numbers.

Consider `C[C@]12CCC(=O)C=C1CC[C@@H]1C2CC[C@]2(C)c3nn(-c4ccc(F)cc4)nc3CC12` (stereo partly drawn), for which the TGI in [1], in test [2], in test [3], in test [4], in [5] and in test [6] was over 100 µM each time. In addition, the TGI in test [7], in [8], in test [9], in [10], in [11] and in test [12] was over 100 µM each time. For the same compound, the TGI in [13] and in test [14] was over 100 µM in each case.
Take `C#CCn1ncc2c(SCc3ccccc3)ncnc21`: the TGI in [1], in test [2], in test [3], in [4], in test [5] and in [6] was over 100 µM each time. Besides, the TGI is 39 µM in [7]; over 100 µM in test [8]; over 100 µM in test [9]; over 100 µM in test [10]; over 100 µM in test [11]; 27.1 µM in test [12]. Besides, the TGI in test [13] and in test [14] was over 100 µM throughout.

The record behind these values is PubChem BioAssay (NCI).
